Data as given in article PMC7801115, “Preclinical in vitro screening of newly synthesised amidino substituted benzimidazoles and benzothiazoles” (Journal of Enzyme Inhibition and Medicinal Chemistry, 2021).
Where two headings read alike, the source gives them in different places.

Columns and labels:
[1] = tested on: A549; assay: MTS cell viability (cytotoxicity) assay, 2D cell culture; format: cell-based; conditions: Homo sapiens, A549, 2D cell culture, 72 h, ±SD, N = 2, read-out: IC50 antitumor activity A549 2D
Protocol: (§1) Compounds are diluted 1:3. 500 nL (for 2 D cell culture) or 400 nL (for 3 D cell culture) of compound were transferred from mother plate to test plate by using Mosquito (TTP labtech). DMSO percentage in test concentrations was 0.5 − 1.0%. Starting concentration of the test compounds and standard compound doxorubicin was 50 µM (2 D cell culture) or 100 µM (3 D cell culture).
(§2) Cells were grown in 96 well cell star polystyrene plates. 10,000 cells/well were seeded in wells 4 h prior the treatment with different compounds concentrations and incubated for 72 h. A cell viability assay was performed according to the manufacturer’s instruction, using CellTiter 96 aqueous solution, MTS kit (Promega, Madison, WI, USA). After 0.5–2 h of cell incubation with MTS in 2 D cell culture, the plates were read using PE EnVision absorbance at 490 nm. […] Since we prefer homogeneous assays (mix and read procedures) and therefore MTS is more practical (one step less than MTT). MTS is more sensitive and accurate in comparison with MTT assay.
(§3) Calculation of IC50 data, curves and QC analysis is made by using Excel tools and GraphPadPrism software (La Jolla, CA), v. […] QC criteria parameters (Z', S:B, R2, HillSlope) were checked for every IC50 curve.

[2] = tested on: HCC827; assay: as above; format: cell-based; conditions: Homo sapiens; HCC827, 2D cell culture, 72 h, MTS; ±SD, N = 2; read-out: IC50 antitumor activity HCC827 2D
Protocol: as §1, §2, §3

[3] = tested on: NCI-H358; assay: as above; format: cell-based; conditions: Homo sapiens; NCI-H358, 2D cell culture, 72 h, MTS; ±SD, N = 2; read-out: IC50 antitumor activity NCI-H358 2D
Protocol: as §1, §2, §3

[4] = Kinetic solubility; format: physicochemical; conditions: aqueous buffer, kinetic from dmso stock, phosphate buffer 50 mM, pH 7.4, 1% DMSO, 37 °C
Protocol: Test compounds and assay controls (sulfaphenazole and α-naphtoflavone) were serially diluted in DMSO by factor 3.3x, 3x, 3.3x and 3x, resulting in a total of 5 different concentrations. Phosphate buffer (50 mM, pH 7.4) was spiked with diluted test compounds and controls with final concentration range in the assay as follows: 100, 30, 10, 3 and 1 µM (1% DMSO). Plate was then incubated by gentle shaking (200–300 rpm) for 1 h and 45 min at 37 °C. After additional15 min on room temperature (without shaking), plate absorbance at 620 nm was measured with microplate reader Tecan, Infinite F500 (total incubation time = 2 h).

[5] = Chromatographic lipophilicity study (Chrom logD7.4); format: physicochemical; conditions: gradient reverse-phase HPLC (Phenomenex Luna C18 column); pH 7.4, gradient reverse-phase HPLC, from CHI7.4
Protocol: In order to determine the lipophilicity range, Chromatographic Hydrophobicity Index was measured by gradient reverse-phase HPLC at physiological pH. Sample working solutions were prepared from 10 mM DMSO stock solutions by dilution with acetonitrile to a final concentration of 1.25 mM and analysed on Agilent 1100 Series liquid chromatography system with HPLC diode-array detector (DAD) coupled with Micromass Quattro micro API mass spectrometer. Samples were injected onto an HPLC column (Phenomenex Luna C18, 50 × 3 mm, 5 µm) and eluted with a gradient at room temperature (sample temperature 15 °C). The mobile phase was composed of 50 mM Ammonium acetate, pH = 7.4 and acetonitrille. A total run time was 5 min, with the flow rate of 1 ml/min (under gradient conditions). The HPLC system was initially calibrated using the calibration set of 10 compounds with literature CHI values. The experimentally determined gradient retention times were plotted against the CHI7.4 values published in the literature resulting in the equation obtained from linear regression analysis. This equation was further used for the calculation of CHI7.4 for test compounds from determined retention times of the main chromatographic peak from UV chromatogram for each compound. The obtained CHI7.4 values were further converted to Chrom log D7.4 as follows: CHI7.4 × 0.0857 − 2.

[6] = Plasma protein binding, equilibrium dialysis; format: in vitro ADME; conditions: for fraction unbound at 4 h, 5 µM: equilibrium dialysis 4 h, 37 °C; for recovery at 4 h, 5 µM: recovery in PPB experiment (value in brackets)
Protocol: The extent of binding to plasma proteins was assessed using equilibrium dialysis method. Plasma (human and mouse) was spiked with test compounds and three controls (nicardipine and verapamil in both species, acebutolol in human and caffeine in mouse plasma) to obtain final concentration of 5 µM (0.5%DMSO). Hydrated membranes were inserted into equilibrium dialysis unit (HT Dialysis) according to manufacturer’s instructions. The dialysate side was then loaded with appropriate volume of buffer, while the same volume of spiked plasma was added into sample side of the well. Incubation lasted 4 h at 37 °C with gentle shaking. Afterwards, protein precipitation was done by mixing matrix matched aliquot of plasma or buffer with 3 volumes of MeCN/MeOH (2:1) mixture, containing internal standard (diclofenac). After centrifugation (at 4500 rpm, at 4 °C, for 30 min) resulting supernatants were subjected to LC-MS/MS.
All ADME samples were analysed on a Sciex API 4000 or Sciex API4500 Triple Quadrupole Mass Spectrometer (Sciex, Framingham, MA, USA) coupled to a UHPLC System (Shimadzu Nexera X2; Shimadzu, Kyoto, Japan). Samples were injected onto an UPLC column (HALO2 C18, 2.1 × 20 mm, 2 µm or Phenomenex Luna Omega Polar C18, 30 × 2.1 mm, 1.6 µm) and eluted with a gradient at temperature of 50 °C. The mobile phase was composed of acetonitrile (with 0.1% formic acid) and 0.1% formic acid in deionised water. A total run time was 1 or 1.5 min, with the flow rate of 0.7 ml/min (under gradient conditions). A positive ion mode with turbo spray, an ion source temperature of 500 °C and a dwell time of 150 ms were utilised for mass spectrometric detection. Multiple reaction monitoring (MRM) was used at the specific transitions for each compound/control tested: compound 5c: 361.9 → 304.9; compound 5d: 344.8 → 287.9; compound 5e: 349.8 → 292.9; compound 5 g: 350.8 → 293.9; compound 5 h: 344.0 → 286.9; compound 6a: 276.9 → 220.0; compound 5 b: 319.0 → 262.0; compound 6 b: 302.1 → 245.1; compound 6c: 344.9 → 288.0; compound 6d: 333.0 → 276.0; compound 6e: 316.1 → 259.0; compound 6f: 327.1 → 270.0; compound 6 g: 377.1 → 320.1; testosterone: 289.3→ 97.1; propranolol: 260.1 → 182.8; caffeine: 195.2 → 138.1; acebutolol: 337.2 → 116.2, nicardipine: 480.2 → 315.0; verapamil: 455.4 → 165.1; amprenavir: 506.2 → 245.4; diclofenac: 296.1 → 213.7 or 296.2 → 215.3; eucatropine: 292.2 → 109.1; benfluorex: 352.1 → 230.3, and warfarin: 309.2 → 163.2

[7] = human plasma, read-out: PPB % bound, Human (converted)
[8] = mouse plasma, read-out: PPB % bound, Mouse (converted)

Compound | IC50 [1] [µM] | IC50 [2] [µM] | IC50 [3] [µM] | solubility kinetic at 2 h [4] [µM] | chromatographic logD [5] | fraction unbound at 4 h, 5 µM [6, 7] | recovery at 4 h, 5 µM ([6]; human plasma) [%] | fraction unbound at 4 h, 5 µM [6, 8] | recovery at 4 h, 5 µM ([6]; mouse plasma) [%]
c1ccc2sc(-c3nc4cc(C5=NCCCN5)ccc4[nH]3)cc2c1 [Compound 6d, 2-(Benzo[b]thiophen-2-yl)-5(6)–(3,4,5,6-tetrahydropyrimidin-1-ium-2-yl)benzimidazole chloride] | > 50 | > 50 | > 50 | 10 to 30 | 2.43 | 0.074 | 86 | 0.061 | 89
Cl.c1ccc2nc(-c3nc4ccc(C5=NCCCN5)cc4s3)ccc2c1 [Compound 5d, 2-(Quinoline-2-yl)-6–(3,4,5,6-tetrahydropyrimidin-1-ium-2-yl)benzothiazole chloride] | > 50 | 14 ± 2.09 | 20 ± 2.53 | 30 to 100 | 2.87 | 0.053 | 76 | 0.04 | 82
c1ccc2c(c1)cc(-c1nc3cc(C4=NCCCN4)ccc3[nH]1)c1ccccc12 [Compound 6g, 2-(Phenanthrene-9-yl)-5(6)–(3,4,5,6-tetrahydropyrimidin-1-ium-2-yl)benzimidazole chloride] | > 50 | > 50 | > 50 | 30 to 100 | 3.27 | 0.015 | 96 | 0.003 | 95
c1ccc(-c2nc3cc(C4=NCCCN4)ccc3[nH]2)cc1 [Compound 6a, 2-Phenyl-5(6)–(3,4,5,6-tetrahydropyrimidin-1-ium-2-yl)benzimidazole chloride] | 15 ± 1.7 | 6 ± 0.5 | 13 ± 0.28 | > 100 | 0.92 | 0.403 | 75 | 0.371 | 79
Cl.c1ccc2sc(-c3nc4ccc(C5=NCCCN5)cc4s3)cc2c1 [Compound 5e, 2-(Benzo[b]thiophen-2-yl)-6–(3,4,5,6-tetrahydropyrimidin-1-ium-2-yl)benzothiazole chloride] | 36 ± 6.37 | 7 ± 0.12 | 16 ± 0.98 | 30 to 100 | 3.19 | 0.021 | 79 | 0.013 | 82
c1ccc2cc(-c3nc4cc(C5=NCCCN5)ccc4[nH]3)ccc2c1 [Compound 6f, 2-(Naphthalene-2-yl)-5(6)–(3,4,5,6-tetrahydropyrimidin-1-ium-2-yl)benzimidazole chloride] | > 50 | > 50 | > 50 | 30 to 100 | 2.18 | 0.19 | 91 | 0.12 | 102
N#Cc1ccc(-c2nc3cc(C4=NCCCN4)ccc3[nH]2)cc1 [Compound 6b, 2–(4-Cyanophenyl)-5(6)–(3,4,5,6-tetrahydropyrimidin-1-ium-2-yl)benzimidazole chloride] | > 50 | > 50 | > 50 | > 100 | 1.17 | 0.457 | 91 | 0.365 | 87
Cl.FC(F)(F)c1ccc(-c2nc3ccc(C4=NCCCN4)cc3s2)cc1 [Compound 5c, 2–(4-Trifluoromethylphenyl)-6–(3,4,5,6-tetrahydropyrimidin-1-ium-2-yl)benzothiazole chloride] | 34 ± 8.65 | 7 ± 0.45 | 23 ± 0.79 | > 100 | 3.31 | 0.03 | 89 | 0.025 | 86
c1ccc2c(-c3nc4ccc(C5=NCCCN5)cc4[nH]3)c[nH]c2c1 [Compound 6e, 2-(1H-Indol-3-yl)-5(6)–(3,4,5,6-tetrahydropyrimidin-1-ium-2-yl)benzimidazole chloride] | > 50 | > 50 | > 50 | 10 to 30 | 1.38 | 0.349 | 81 | 0.259 | 91
Cl.N#Cc1ccc(-c2nc3ccc(C4=NCCCN4)cc3s2)cc1 [Compound 5b, 2–(4-Cyanophenyl)-6–(3,4,5,6-tetrahydropyrimidin-1-ium-2-yl)benzothiazole chloride] | > 50 | > 50 | > 50 | > 100 | 2.18 | 0.334 | 93 | 0.249 | 98
Cl.c1ccc2sc(-c3nc4ccc(C5=NCCCN5)cc4s3)nc2c1 [Compound 5g, 2-(Benzothiazole-2-yl)-6–(3,4,5,6-tetrahydropyrimidin-1-ium-2-yl)benzothiazole chloride] | 41 ± 0.54 | 19 ± 2.21 | 26 ± 0.3 | 30 to 100 | 2.71 | 0.049 | 94 | 0.04 | 85
